Results from patent publication US20060079533A1, “Methods of treating alzheimer's disease” (priority 2001, published 2006).
Counter-ions that a name gives are not always drawn.

melting point: 159 to 161 °C (dec.)
Compound: Clc1ccc([C@H]2CCNC[C@@H]2OCc2ccc3ccccc3c2)cc1 (racemic) (as salt: hydrochloride) [Example 12, (3RS,4RS)-4-(4-chloro-phenyl)-3-(naphthalen-2-ylmethoxy)-piperidine]
